The values that follow come from ChEMBL document CHEMBL5131399, “Broadening antifungal spectrum and improving metabolic stablity based on a scaffold strategy: Design, synthesis, and evaluation of novel 4-phenyl-4,5-dihydrooxazole derivatives as potent fungistatic and fungicidal reagents” (Eur J Med Chem, 2022).

What is called half-life is how long it takes for the measured level to halve. As a reminder, the MIC is the lowest concentration that inhibits growth of the organism. In general, IC50 refers to the point on the concentration scale where inhibition reaches its midpoint.

In brackets after ≈: the same amount, converted by molar mass.

Test system in one data set: not listed separately
The data set can be described thus: Stability in human plasma assessed as half life measured at 120 mins by LC/MS-MS analysis.
Details: not given
Type of data set: ADME, cell-free.
Regarding `c1ccc(-c2ccc(C3=NC(Cn4ccnc4)(c4ccccc4)CO3)s2)cc1` (stereo not given), the half-life was greater than 288 min.

For a further data set, the system named is Candida albicans. The data set can be described thus: Antifungal activity against Candida albicans ATCC SC5314 assessed as fungal growth inhibition by NCCLS protocol based method. Format: functional.
Details: not given
As for `CCC(C)n1ncn(-c2ccc(N3CCN(c4ccc(OCC5COC(Cn6cncn6)(c6ccc(Cl)cc6Cl)O5)cc4)CC3)cc2)c1=O` (stereo not given) [ITRACONAZOLE], the MIC came out at 0.03 µg/mL (≈ 0.0425 µM).

As for `c1ccc(-c2ccc(C3=NC(Cn4ccnc4)(c4ccccc4)CO3)s2)cc1` (stereo not given), the MIC was 1 µg/mL (≈ 2.59 µM).

A further data set concerns Pichia kudriavzevii. The data set can be described thus: Antifungal activity against Candida krusei GIM2.1 assessed as fungal growth inhibition by NCCLS protocol based method.
Details: not given
Format: functional.
With `CCC(C)n1ncn(-c2ccc(N3CCN(c4ccc(OCC5COC(Cn6cncn6)(c6ccc(Cl)cc6Cl)O5)cc4)CC3)cc2)c1=O` (stereo not given) [ITRACONAZOLE], the MIC was 0.125 µg/mL (≈ 0.177 µM).

For the compound `c1ccc(-c2ccc(C3=NC(Cn4ccnc4)(c4ccccc4)CO3)s2)cc1` (stereo not given), the MIC was 16 µg/mL (≈ 41.5 µM).

The next data set deals with Aspergillus fumigatus. The data set can be described thus: Antifungal activity against Aspergillus fumigatus CGMCC3.7795 assessed as fungal growth inhibition by NCCLS protocol based method.
Details: not given
Type of data set: functional.
For the compound `CCC(C)n1ncn(-c2ccc(N3CCN(c4ccc(OCC5COC(Cn6cncn6)(c6ccc(Cl)cc6Cl)O5)cc4)CC3)cc2)c1=O` (stereo not given) [ITRACONAZOLE], the MIC was determined as 0.125 µg/mL (≈ 0.177 µM).

Consider `c1ccc(-c2ccc(C3=NC(Cn4ccnc4)(c4ccccc4)CO3)s2)cc1` (stereo not given), for which the MIC turned out to be 8 µg/mL (≈ 20.8 µM).

Test system in the next data set: not listed separately
The data set can be described thus: Stability in human plasma assessed as compound remaining measured at 120 mins by LC/MS-MS analysis. Format: ADME, cell-free. To be noted: read-out: Stability.
On to `c1ccc(-c2ccc(C3=NC(Cn4ccnc4)(c4ccccc4)CO3)s2)cc1` (stereo not given), for which the remaining at 2 h is 89.5%.

Test system in the next data set: not listed separately
The data set can be described thus: Cytotoxicity against human HEK293T cells assessed as inhibition of cell growth incubated for 4 hrs by MTT assay. Format: toxicity, cell-based, HEK-293T.
Details: not given
In general terms: Tetrazolium assays rely on reduction of a dye to a coloured formazan, in cell work by metabolically active cells.
In the case of `CCC(C)n1ncn(-c2ccc(N3CCN(c4ccc(OCC5COC(Cn6cncn6)(c6ccc(Cl)cc6Cl)O5)cc4)CC3)cc2)c1=O` (stereo not given) [ITRACONAZOLE], the IC50 at 4 h was greater than 50 µM.

The subject of the next data set is Candida tropicalis. The data set can be described thus: Antifungal activity against Candida tropicalis CGMCC 2.3739 assessed as fungal growth inhibition by NCCLS protocol based method. Type of data set: functional.
Details: not given
In the case of `CCC(C)n1ncn(-c2ccc(N3CCN(c4ccc(OCC5COC(Cn6cncn6)(c6ccc(Cl)cc6Cl)O5)cc4)CC3)cc2)c1=O` (stereo not given) [ITRACONAZOLE], the MIC was 0.03 µg/mL (≈ 0.0425 µM).

On to `c1ccc(-c2ccc(C3=NC(Cn4ccnc4)(c4ccccc4)CO3)s2)cc1` (stereo not given), for which the MIC was 4 µg/mL (≈ 10.4 µM).

The test system of a further data set is A549. The data set can be described thus: Cytotoxicity against human A549 cells assessed as inhibition of cell growth incubated for 4 hrs by MTT assay. Conditions: A549, 4 h. Format: functional, cell-based.
In the case of `CCC(C)n1ncn(-c2ccc(N3CCN(c4ccc(OCC5COC(Cn6cncn6)(c6ccc(Cl)cc6Cl)O5)cc4)CC3)cc2)c1=O` (stereo not given) [ITRACONAZOLE], the IC50 was greater than 50 µM.

Test system in the next data set: not listed separately
The data set can be described thus: Metabolic stability in human liver microsomes assessed as half life preincubated for 10 mins followed by NADPH addition and measured after 5 to 60 mins by LC-MS/MS analysis. To be noted: time 15-70 min. Format: ADME, Microsome. A general note: Liver microsomes are vesicles of endoplasmic reticulum, rich in cytochrome P450 enzymes.
Turning to `c1ccc(-c2ccc(C3=NC(Cn4ccnc4)(c4ccccc4)CO3)s2)cc1` (stereo not given), the half-life worked out at 50.2 min.

Test system in the next data set: not listed separately
The data set can be described thus: Metabolic stability in human microsomes assessed as intrinsic clearance preincubated for 10 mins followed by NADPH addition and measured after 5 to 60 mins by LC-MS/MS analysis. Type of data set: ADME, Microsome. Conditions: time 15-70 min.
Regarding `c1ccc(-c2ccc(C3=NC(Cn4ccnc4)(c4ccccc4)CO3)s2)cc1` (stereo not given), the CLint turned out to be 27.6 µL/min/mg.

The test system of another data set is Candida albicans. The data set can be described thus: Antibiofilm activity against FLC-resistant Candida albicans CPCC400616 assessed as assessed as inhibition of biofilm formation measured at 24 hrs by XTT reduction assay. Type of data set: functional.
Details: not given
Take `CCC(C)n1ncn(-c2ccc(N3CCN(c4ccc(OCC5COC(Cn6cncn6)(c6ccc(Cl)cc6Cl)O5)cc4)CC3)cc2)c1=O` (stereo not given) [ITRACONAZOLE]: the MIC50 is greater than 64 µg/mL.

A further data set relates to HepG2. The data set can be described thus: Cytotoxicity against human HepG2 cells assessed as inhibition of cell growth incubated for 4 hrs by MTT assay. Format: functional, cell-based. Conditions: HepG2, 4 h.
With `CCC(C)n1ncn(-c2ccc(N3CCN(c4ccc(OCC5COC(Cn6cncn6)(c6ccc(Cl)cc6Cl)O5)cc4)CC3)cc2)c1=O` (stereo not given) [ITRACONAZOLE], the IC50 was greater than 50 µM.

A further data set concerns Candida albicans. The data set can be described thus: Antibiofilm activity against FLC-resistant Candida albicans CPCC400616 assessed as assessed as inhibition of biofilm formation measured at 18 hrs by XTT reduction assay. Format: functional.
Details: not given
As for `CCC(C)n1ncn(-c2ccc(N3CCN(c4ccc(OCC5COC(Cn6cncn6)(c6ccc(Cl)cc6Cl)O5)cc4)CC3)cc2)c1=O` (stereo not given) [ITRACONAZOLE], the MIC50 was greater than 64 µg/mL.

Another data set has as its system Candida albicans. The data set can be described thus: Antibiofilm activity against FLC-resistant Candida albicans CPCC400616 assessed as assessed as inhibition of biofilm formation measured at 6 hrs by XTT reduction assay. Type of data set: functional.
Details: not given
In the case of `CCC(C)n1ncn(-c2ccc(N3CCN(c4ccc(OCC5COC(Cn6cncn6)(c6ccc(Cl)cc6Cl)O5)cc4)CC3)cc2)c1=O` (stereo not given) [ITRACONAZOLE], the MIC50 was 32 µg/mL (≈ 45.3 µM).

The subject of a further data set is Candida albicans. The data set can be described thus: Antifungal activity against Candida albicans CPCC400616 assessed as fungal growth inhibition by NCCLS protocol based method. Type of data set: functional.
Details: not given
With `CCC(C)n1ncn(-c2ccc(N3CCN(c4ccc(OCC5COC(Cn6cncn6)(c6ccc(Cl)cc6Cl)O5)cc4)CC3)cc2)c1=O` (stereo not given) [ITRACONAZOLE], the MIC is 0.03 µg/mL (≈ 0.0425 µM).

Take `c1ccc(-c2ccc(C3=NC(Cn4ccnc4)(c4ccccc4)CO3)s2)cc1` (stereo not given): the MIC was 1 µg/mL (≈ 2.59 µM).

In a further data set the test system is Candida parapsilosis. The data set can be described thus: Antifungal activity against Candida parapsilosis GIM2.190 assessed as fungal growth inhibition by NCCLS protocol based method. Format: functional. To be noted: Lodderomyces parapsilosis.
Turning to `CCC(C)n1ncn(-c2ccc(N3CCN(c4ccc(OCC5COC(Cn6cncn6)(c6ccc(Cl)cc6Cl)O5)cc4)CC3)cc2)c1=O` (stereo not given) [ITRACONAZOLE], the MIC came out at 0.125 µg/mL (≈ 0.177 µM).

With `c1ccc(-c2ccc(C3=NC(Cn4ccnc4)(c4ccccc4)CO3)s2)cc1` (stereo not given), the minimum inhibitory concentration (MIC) was determined as 16 µg/mL (≈ 41.5 µM).

The test system of the next data set is Cryptococcus neoformans. The data set can be described thus: Antifungal activity against Cryptococcus neoformans CGMCC 2.3161 assessed as fungal growth inhibition by NCCLS protocol based method. Type of data set: functional.
Details: not given
For `CCC(C)n1ncn(-c2ccc(N3CCN(c4ccc(OCC5COC(Cn6cncn6)(c6ccc(Cl)cc6Cl)O5)cc4)CC3)cc2)c1=O` (stereo not given) [ITRACONAZOLE], the MIC amounted to 0.125 µg/mL (≈ 0.177 µM).

For the compound `c1ccc(-c2ccc(C3=NC(Cn4ccnc4)(c4ccccc4)CO3)s2)cc1` (stereo not given), the MIC worked out at 2 µg/mL (≈ 5.19 µM).

A further data set has as its system MCF7. The data set can be described thus: Cytotoxicity against human MCF7 cells assessed as inhibition of cell growth incubated for 4 hrs by MTT assay. Format: functional, cell-based. To be noted: MCF7, 4 h.
For `CCC(C)n1ncn(-c2ccc(N3CCN(c4ccc(OCC5COC(Cn6cncn6)(c6ccc(Cl)cc6Cl)O5)cc4)CC3)cc2)c1=O` (stereo not given) [ITRACONAZOLE], the IC50 is greater than 50 µM.

For the next data set, the system named is Nakaseomyces glabratus. The data set can be described thus: Antifungal activity against Candida glabrata clinical isolate assessed as fungal growth inhibition by NCCLS protocol based method. Type of data set: functional.
Details: not given
In the case of `CCC(C)n1ncn(-c2ccc(N3CCN(c4ccc(OCC5COC(Cn6cncn6)(c6ccc(Cl)cc6Cl)O5)cc4)CC3)cc2)c1=O` (stereo not given) [ITRACONAZOLE], the minimum inhibitory concentration (MIC) is 0.125 µg/mL (≈ 0.177 µM).

As for `c1ccc(-c2ccc(C3=NC(Cn4ccnc4)(c4ccccc4)CO3)s2)cc1` (stereo not given), the MIC worked out at 16 µg/mL (≈ 41.5 µM).

Test system in another data set: not listed separately
The data set can be described thus: Stability in human plasma assessed as compound remaining measured at 60 mins by LC/MS-MS analysis. Format: ADME, cell-free. To be noted: read-out: Stability.
In the case of `c1ccc(-c2ccc(C3=NC(Cn4ccnc4)(c4ccccc4)CO3)s2)cc1` (stereo not given), the remaining at 1 h was determined as 93.1%.

Test system in another data set: not listed separately
The data set can be described thus: Metabolic stability in human liver microsomes assessed as compound remaining preincubated for 10 mins followed by NADPH addition and measured at 60 mins by LC-MS/MS analysis. Conditions: time 70 min, read-out: Stability. Type of data set: ADME, Microsome.
As for `c1ccc(-c2ccc(C3=NC(Cn4ccnc4)(c4ccccc4)CO3)s2)cc1` (stereo not given), the remaining at 1 h worked out at 41.3%.

Another data set concerns Candida albicans. The data set can be described thus: Antibiofilm activity against FLC-resistant Candida albicans CPCC400616 assessed as assessed as inhibition of biofilm formation measured at 3 hrs by XTT reduction assay. Type of data set: functional.
Details: not given
Regarding `CCC(C)n1ncn(-c2ccc(N3CCN(c4ccc(OCC5COC(Cn6cncn6)(c6ccc(Cl)cc6Cl)O5)cc4)CC3)cc2)c1=O` (stereo not given) [ITRACONAZOLE], the MIC50 was 16 µg/mL (≈ 22.7 µM).
